The values that follow come from ChEMBL document CHEMBL3991601, “The target landscape of clinical kinase drugs” (Science, 2017).

A word on the Kd: it is the free concentration of one partner at which half of the binding sites on the other are occupied at equilibrium, for simple one-to-one binding.

The target in test [1] is T1, Peroxisomal acyl-coenzyme A oxidase 3 (Homo sapiens, UniProt O15254).
T1 sequence (O15254 whole entry): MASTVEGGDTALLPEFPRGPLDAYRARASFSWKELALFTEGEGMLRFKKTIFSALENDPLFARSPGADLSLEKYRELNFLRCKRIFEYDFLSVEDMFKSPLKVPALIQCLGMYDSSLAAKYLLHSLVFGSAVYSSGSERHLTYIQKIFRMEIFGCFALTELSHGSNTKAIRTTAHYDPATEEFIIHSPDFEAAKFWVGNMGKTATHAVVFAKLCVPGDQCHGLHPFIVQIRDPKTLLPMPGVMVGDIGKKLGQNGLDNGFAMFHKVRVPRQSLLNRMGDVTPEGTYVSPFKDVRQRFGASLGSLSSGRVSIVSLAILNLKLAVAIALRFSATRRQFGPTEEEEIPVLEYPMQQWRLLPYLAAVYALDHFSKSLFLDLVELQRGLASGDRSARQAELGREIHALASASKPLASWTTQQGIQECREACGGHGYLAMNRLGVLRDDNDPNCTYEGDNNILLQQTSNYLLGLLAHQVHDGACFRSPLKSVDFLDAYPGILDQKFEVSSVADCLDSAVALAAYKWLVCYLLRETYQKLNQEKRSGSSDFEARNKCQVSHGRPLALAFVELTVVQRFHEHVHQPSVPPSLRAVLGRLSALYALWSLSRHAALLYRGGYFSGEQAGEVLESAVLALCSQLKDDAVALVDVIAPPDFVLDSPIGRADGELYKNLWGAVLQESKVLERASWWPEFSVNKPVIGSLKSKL

For a further test, the target named is Actin-related protein 2 (Homo sapiens, UniProt P61160).
In test [2] the target is BMP-2-inducible protein kinase (Homo sapiens, UniProt Q9NSY1).
Sequence of BMP-2-inducible protein kinase (Q9NSY1 whole entry): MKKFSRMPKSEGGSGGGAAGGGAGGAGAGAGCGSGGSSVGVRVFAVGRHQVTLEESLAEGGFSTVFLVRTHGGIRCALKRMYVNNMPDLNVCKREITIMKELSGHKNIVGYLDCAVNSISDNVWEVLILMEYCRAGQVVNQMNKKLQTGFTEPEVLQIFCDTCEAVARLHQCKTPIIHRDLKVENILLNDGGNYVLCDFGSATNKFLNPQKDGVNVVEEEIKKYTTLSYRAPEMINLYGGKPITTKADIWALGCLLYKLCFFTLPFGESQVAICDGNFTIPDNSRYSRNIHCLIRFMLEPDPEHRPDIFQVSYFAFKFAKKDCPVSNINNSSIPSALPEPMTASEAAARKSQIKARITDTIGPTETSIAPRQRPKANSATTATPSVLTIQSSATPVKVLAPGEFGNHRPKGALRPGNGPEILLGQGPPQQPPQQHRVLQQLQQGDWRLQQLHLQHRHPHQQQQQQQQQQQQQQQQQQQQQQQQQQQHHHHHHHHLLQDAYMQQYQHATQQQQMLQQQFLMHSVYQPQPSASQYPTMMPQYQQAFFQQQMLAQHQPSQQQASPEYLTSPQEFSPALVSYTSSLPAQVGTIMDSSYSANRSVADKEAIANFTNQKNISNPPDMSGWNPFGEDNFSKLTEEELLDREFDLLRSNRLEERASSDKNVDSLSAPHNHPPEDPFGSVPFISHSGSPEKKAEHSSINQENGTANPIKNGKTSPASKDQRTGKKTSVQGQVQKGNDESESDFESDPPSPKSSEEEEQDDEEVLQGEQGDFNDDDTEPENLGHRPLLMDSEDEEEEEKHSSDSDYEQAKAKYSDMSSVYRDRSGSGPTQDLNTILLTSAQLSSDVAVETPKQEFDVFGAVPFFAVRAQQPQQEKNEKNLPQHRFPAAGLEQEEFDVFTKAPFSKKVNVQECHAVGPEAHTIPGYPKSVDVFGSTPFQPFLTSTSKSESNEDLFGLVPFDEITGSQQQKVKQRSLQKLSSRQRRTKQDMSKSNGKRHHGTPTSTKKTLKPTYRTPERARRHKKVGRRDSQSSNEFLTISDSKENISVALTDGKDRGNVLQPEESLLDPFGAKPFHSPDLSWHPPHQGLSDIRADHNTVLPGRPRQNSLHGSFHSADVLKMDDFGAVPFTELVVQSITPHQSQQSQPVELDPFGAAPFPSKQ
For test [3], the target named is Calcium/calmodulin-dependent protein kinase type II subunit delta (Homo sapiens, UniProt Q13557).
Sequence of Calcium/calmodulin-dependent protein kinase type II subunit delta (Q13557 whole entry): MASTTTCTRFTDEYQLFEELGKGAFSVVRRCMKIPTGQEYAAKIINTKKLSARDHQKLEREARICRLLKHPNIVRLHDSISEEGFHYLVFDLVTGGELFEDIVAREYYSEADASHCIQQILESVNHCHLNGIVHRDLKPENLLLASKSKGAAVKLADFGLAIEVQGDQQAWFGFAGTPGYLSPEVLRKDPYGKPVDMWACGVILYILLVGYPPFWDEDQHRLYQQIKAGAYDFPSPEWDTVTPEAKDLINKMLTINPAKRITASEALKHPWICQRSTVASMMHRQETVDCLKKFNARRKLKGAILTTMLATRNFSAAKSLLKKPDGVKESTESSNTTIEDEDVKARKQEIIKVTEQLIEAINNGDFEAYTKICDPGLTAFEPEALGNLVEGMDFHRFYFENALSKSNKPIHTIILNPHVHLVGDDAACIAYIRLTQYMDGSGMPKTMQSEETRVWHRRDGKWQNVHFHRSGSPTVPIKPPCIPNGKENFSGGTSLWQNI
Test [4] concerns the target T2, Calcium/calmodulin-dependent protein kinase type IV (Homo sapiens, UniProt Q16566).
T2 sequence (Q16566 whole entry): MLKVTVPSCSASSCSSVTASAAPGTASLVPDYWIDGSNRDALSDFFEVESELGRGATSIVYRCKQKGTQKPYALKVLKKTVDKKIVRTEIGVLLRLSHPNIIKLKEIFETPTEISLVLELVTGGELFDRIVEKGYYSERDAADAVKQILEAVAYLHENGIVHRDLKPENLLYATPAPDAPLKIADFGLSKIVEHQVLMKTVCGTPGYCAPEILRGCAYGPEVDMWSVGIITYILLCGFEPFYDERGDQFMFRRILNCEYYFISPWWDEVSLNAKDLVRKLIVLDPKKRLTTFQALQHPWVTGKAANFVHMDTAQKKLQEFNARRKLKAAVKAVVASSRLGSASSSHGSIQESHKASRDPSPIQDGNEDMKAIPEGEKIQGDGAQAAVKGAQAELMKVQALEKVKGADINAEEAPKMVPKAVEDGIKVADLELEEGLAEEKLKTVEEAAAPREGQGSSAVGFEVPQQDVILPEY

Test [5] addresses Cyclin-dependent kinase 6 (Homo sapiens, UniProt Q00534).
For test [6], the target named is Casein kinase I isoform gamma-1 (Homo sapiens, UniProt Q9HCP0).
Sequence of Casein kinase I isoform gamma-1 (Q9HCP0 whole entry, canonical isoform): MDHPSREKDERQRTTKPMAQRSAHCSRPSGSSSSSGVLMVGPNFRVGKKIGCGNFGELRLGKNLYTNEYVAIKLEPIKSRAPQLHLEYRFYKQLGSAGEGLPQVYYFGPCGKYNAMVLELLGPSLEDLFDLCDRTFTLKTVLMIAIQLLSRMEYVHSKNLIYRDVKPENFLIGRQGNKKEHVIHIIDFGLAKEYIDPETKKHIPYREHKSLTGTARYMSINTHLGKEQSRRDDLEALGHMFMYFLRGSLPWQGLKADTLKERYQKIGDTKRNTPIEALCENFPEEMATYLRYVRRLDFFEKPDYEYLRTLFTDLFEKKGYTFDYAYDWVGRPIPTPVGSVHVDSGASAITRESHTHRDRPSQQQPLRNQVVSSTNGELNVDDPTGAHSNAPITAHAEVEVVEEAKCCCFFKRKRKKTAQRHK
Test [7] has as its target T3, Receptor-type tyrosine-protein kinase FLT3 (Homo sapiens, UniProt P36888).
T3 sequence (P36888 whole entry): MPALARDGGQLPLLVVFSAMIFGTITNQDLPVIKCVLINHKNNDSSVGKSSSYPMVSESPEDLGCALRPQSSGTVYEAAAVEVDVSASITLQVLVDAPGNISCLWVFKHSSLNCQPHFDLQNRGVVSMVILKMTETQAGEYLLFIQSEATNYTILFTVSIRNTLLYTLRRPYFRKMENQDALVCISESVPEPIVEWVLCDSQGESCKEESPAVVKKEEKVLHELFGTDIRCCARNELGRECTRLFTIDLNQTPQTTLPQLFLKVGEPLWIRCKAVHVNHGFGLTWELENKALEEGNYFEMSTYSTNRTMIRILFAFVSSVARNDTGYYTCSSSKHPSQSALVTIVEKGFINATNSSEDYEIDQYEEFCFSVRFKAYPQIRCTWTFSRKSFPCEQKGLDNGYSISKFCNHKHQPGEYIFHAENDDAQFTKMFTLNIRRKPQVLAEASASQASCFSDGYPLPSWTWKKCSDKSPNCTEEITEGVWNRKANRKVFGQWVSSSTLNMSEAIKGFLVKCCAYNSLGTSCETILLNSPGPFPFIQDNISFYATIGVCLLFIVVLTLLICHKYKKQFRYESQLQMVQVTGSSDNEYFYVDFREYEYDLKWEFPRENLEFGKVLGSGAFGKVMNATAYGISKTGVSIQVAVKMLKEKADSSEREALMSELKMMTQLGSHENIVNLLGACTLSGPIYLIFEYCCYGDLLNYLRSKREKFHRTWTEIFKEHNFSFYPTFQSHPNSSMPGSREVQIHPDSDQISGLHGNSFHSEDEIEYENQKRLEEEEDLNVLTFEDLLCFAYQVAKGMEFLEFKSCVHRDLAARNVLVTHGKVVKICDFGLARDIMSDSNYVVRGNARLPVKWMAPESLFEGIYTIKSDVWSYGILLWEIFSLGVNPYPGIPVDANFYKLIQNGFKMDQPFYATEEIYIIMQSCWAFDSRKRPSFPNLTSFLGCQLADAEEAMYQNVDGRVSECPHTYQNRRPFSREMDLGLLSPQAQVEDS

Another test has as its target Myosin-14 (Homo sapiens, UniProt Q7Z406).
Test [8] has as its target Protein kinase C alpha type (Homo sapiens, UniProt P17252).
Test [9] concerns the target Ras-related protein Rab-6A (Homo sapiens, UniProt P20340).
For test [10], the target named is GTP-binding nuclear protein Ran (Homo sapiens, UniProt P62826).
For test [11], the target named is Receptor-interacting serine/threonine-protein kinase 2 (Homo sapiens, UniProt O43353).
Sequence of Receptor-interacting serine/threonine-protein kinase 2 (O43353 whole entry): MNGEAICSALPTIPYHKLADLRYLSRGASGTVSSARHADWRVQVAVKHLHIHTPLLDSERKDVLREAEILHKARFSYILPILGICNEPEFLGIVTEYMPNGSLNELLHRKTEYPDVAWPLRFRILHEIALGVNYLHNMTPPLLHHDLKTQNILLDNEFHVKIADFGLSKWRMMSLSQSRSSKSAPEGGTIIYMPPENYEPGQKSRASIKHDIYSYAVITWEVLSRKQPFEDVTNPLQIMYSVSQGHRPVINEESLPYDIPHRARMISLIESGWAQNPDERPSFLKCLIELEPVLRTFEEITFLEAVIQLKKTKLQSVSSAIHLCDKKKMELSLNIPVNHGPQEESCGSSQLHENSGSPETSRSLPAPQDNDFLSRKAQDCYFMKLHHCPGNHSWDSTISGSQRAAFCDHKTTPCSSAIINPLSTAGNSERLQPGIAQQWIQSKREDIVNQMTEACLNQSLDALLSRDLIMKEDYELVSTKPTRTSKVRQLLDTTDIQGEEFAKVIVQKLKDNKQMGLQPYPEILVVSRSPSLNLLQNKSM

Structures are written as SMILES. The source made the active and inactive calls. For most assays here, no stated cut-off is given here; in the data, actives have a measured Kd and inactives only a lower limit.

Sequence of Ras-related protein Rab-6A (P20340 whole entry): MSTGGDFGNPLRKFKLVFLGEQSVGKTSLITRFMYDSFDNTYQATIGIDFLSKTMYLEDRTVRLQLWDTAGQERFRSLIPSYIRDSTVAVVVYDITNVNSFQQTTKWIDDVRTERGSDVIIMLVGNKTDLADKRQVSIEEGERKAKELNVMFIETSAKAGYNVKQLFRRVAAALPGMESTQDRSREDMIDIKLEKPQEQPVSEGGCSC
Sequence of Cyclin-dependent kinase 6 (Q00534 whole entry, canonical isoform): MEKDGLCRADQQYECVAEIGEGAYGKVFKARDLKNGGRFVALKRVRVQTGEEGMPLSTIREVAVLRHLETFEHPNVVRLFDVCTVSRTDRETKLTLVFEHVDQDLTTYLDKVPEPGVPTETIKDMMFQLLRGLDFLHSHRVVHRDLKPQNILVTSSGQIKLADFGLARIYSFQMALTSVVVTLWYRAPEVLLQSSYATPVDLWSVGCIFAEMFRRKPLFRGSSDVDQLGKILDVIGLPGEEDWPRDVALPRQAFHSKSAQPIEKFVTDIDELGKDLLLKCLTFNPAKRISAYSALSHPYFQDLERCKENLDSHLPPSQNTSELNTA

As for `C[C@@H](Nc1cc(F)cc(F)c1)c1cc(C(=O)N(C)C)cc2c(=O)cc(N3CCOCC3)oc12` [AZD-8186], the Kd (in [1]; at Actin-related protein 2; in [2]; in test [3]; in test [4]; in test [5]) was > 30 µM (inactive) throughout. For the same compound, the Kd (in [6]; in [7]; at Myosin-14; in [8]; in [9]; in [10]) was > 30 µM (inactive) throughout. Besides, the Kd in [11] was > 30 µM (inactive).
Take `CN1N=C(N)c2cn([C@@H]3O[C@H](COP(=O)(O)O)[C@@H](O)[C@H]3O)c3ncnc1c23` [TRICIRIBINE PHOSPHATE]: the Kd (in test [1]; at Actin-related protein 2; in [2]; in [3]; in test [4]; in test [5]) was > 30 µM (inactive) throughout. For the same compound, the Kd (in test [6]; in [7]; at Myosin-14; in test [8]; in [10]; in test [11]) was > 30 µM (inactive) in each case.
Take `CNC(=O)CN1CCC(Oc2cc3c(Nc4cccc(Cl)c4F)ncnc3cc2OC)CC1` [SAPITINIB]: the Kd (in test [1]; at Actin-related protein 2; in test [2]; in test [3]; in [4]; in test [5]) was > 30 µM (inactive) each time. Also, the Kd (in test [6]; in [7]; on Myosin-14; in [8]; in test [9]; in test [10]) was > 30 µM (inactive) throughout. Moreover, in test [11], the Kd is 0.751 µM (active).
In the case of `O=C(c1ccc(F)c(F)c1Nc1ccc(I)cc1F)N1CC(O)([C@@H]2CCCCN2)C1` [COBIMETINIB], the Kd in [1], in test [2], in [3], in test [4], in test [5] and in test [6] was > 30 µM (inactive) throughout. Also, the Kd (in [7]; on Myosin-14; in test [8]; in [9]; in test [10]; in test [11]) was > 30 µM (inactive) each time.
`CCS(=O)(=O)N1CC(CC#N)(n2cc(-c3ncnc4[nH]ccc34)cn2)C1` [BARICITINIB]: the Kd was > 30 µM (inactive) in [1]; > 30 µM (inactive) at Actin-related protein 2; 0.312 µM (active) in test [3]; > 30 µM (inactive) in test [4]; > 30 µM (inactive) in [5]; 1.75 µM in [6]. Besides, the Kd in test [7] is > 30 µM (inactive); at Myosin-14, > 30 µM (inactive); in test [8] it was 2.07 µM (active); in test [9] it was > 30 µM (inactive); in test [10], > 30 µM (inactive); in test [11], > 30 µM (inactive).
Turning to `Cc1ccc(NC(=O)c2ccc(CN3CC[C@H](N(C)C)C3)c(C(F)(F)F)c2)cc1Nc1nccc(-c2cncnc2)n1` [BAFETINIB], the Kd (in test [1]; at Actin-related protein 2; in test [2]; in test [3]; in test [4]; in test [5]) was > 30 µM (inactive) each time. Moreover, the Kd in test [6] was > 30 µM (inactive); in test [7], > 30 µM (inactive); on Myosin-14 it was > 30 µM (inactive); in test [8], > 30 µM (inactive); in test [10], > 30 µM (inactive); in test [11] it was 1.47 µM (active).
For `Cc1ccc(-n2nc(C(C)(C)C)cc2NC(=O)NCc2cc(F)ccc2Oc2ccc3c(cnn3CCO)c2)cc1` [PEXMETINIB], the Kd (in test [1]; at Actin-related protein 2; in [2]; in [3]; in test [4]; in [5]) was > 30 µM (inactive) each time. For the same compound, the Kd (in [6]; in test [7]; on Myosin-14; in test [8]; in test [9]; in test [10]) was > 30 µM (inactive) in each case. In addition, the Kd in test [11] was > 30 µM (inactive).
Consider `CCc1cnn2c(NCc3ccc[n+]([O-])c3)cc(N3CCCC[C@H]3CCO)nc12` [DINACICLIB], for which the Kd (in [1]; on Actin-related protein 2; in test [2]; in test [3]; in [4]; in test [6]) was > 30 µM (inactive) each time. Further, the Kd (in test [7]; on Myosin-14; in test [8]; in test [9]; in [10]; in test [11]) was > 30 µM (inactive) each time.
With `Cn1ncc(Cl)c1-c1cc(C(=O)N[C@H](CN)Cc2cccc(F)c2)sc1Cl` [AFURESERTIB], the Kd (in test [1]; on Actin-related protein 2; in test [2]; in test [3]; in test [4]; in test [5]) was > 30 µM (inactive) in each case. For the same compound, the Kd was > 30 µM (inactive) in test [6]; > 30 µM (inactive) in test [7]; > 30 µM (inactive) at Myosin-14; 21.4 µM (active) in test [8]; > 30 µM (inactive) in test [9]; > 30 µM (inactive) in test [11].
